The numbers were not newly measured in patent US8029830B2, “Composition and method for promoting internal health and external appearance” (Nuvocare Health Services Inc., priority 2008, dated 2011), which cites them from elsewhere.

Where two headings read alike, the source gives them in different places.

In one series the test system is healthy volunteers. The settings on record: daily oral, 8 weeks.
Series [1] has as its system persons with type 2 diabetes mellitus.
The subject of series [2] is human plasma, blood platelets and lymphocytes.
Series [3] has as its system rat model of diabetic neuropathy. The settings on record: intraperitoneal treatment for 2 weeks.
The test system of the next series is sedentary human subjects. The settings on record: for body fat percentage, body fat mass and lean body mass: oral ingestion for 12 weeks.
A further series deals with mice. The settings on record: topical application.
The test system of a further series is rats. The settings on record: rat, in vivo.
Series [4] relates to lean volunteers and post-obese subjects.
For series [5] the following is noted: human, in vivo.
The next series deals with older and younger women. The settings on record: following caffeine ingestion.
For series [6] the following is noted: in vitro.
The subject of a further series is thymocytes. The settings on record: irradiated (6 Gy).
The next series has as its system macrophage cultures. The settings on record: impairment induced by phorbol esters.
The subject of the next series is healthy human volunteers. The settings on record: at the end of the treatment period.
For series [7] the following is noted: 28 days of supplementation.
The next series relates to male subjects. The settings on record: cycling capacity.
In the next series the test system is pigs. The settings on record: pretreatment; hyperbaric oxygen (HBO).
A further series relates to rat kidney fibroblasts. The settings on record: UVA light.

For the compound `[Zn]` [zinc], the “plasma levels of lipid peroxidation products and DNA adducts” value in the series with healthy volunteers was “decreased”. For the same compound, in series [1] (after six months), the “decrease of plasma TBARS” value is 15%. Moreover, the plasma zinc values entry in [1] (after three and six months of supplementation, all subjects) is “greater than 10.7 micro mol/L”.
As for `Oc1ccc(C=Cc2cc(O)cc(O)c2)cc1` [resveratrol], the “oxidative stress levels in plasma” value in series [2] (after incubation with platinum compounds) was “distinct reduction”. Moreover, in series [2] (control blood platelets and platelets treated with platinum compounds), the “biomarker of lipid peroxidation” value is listed as “decreased the production”. In series [2] (lymphocytes, vs platinum compounds without resveratrol), the “DNA damage (measured by comet assay)” value was “significant decrease”. The “pathologies associated with diabetic neuropathy” value in series [3] is recorded as “protective effects”.
For `C=C[C@@]1(C)CC(=O)[C@]2(O)[C@@]3(C)[C@@H](O)CCC(C)(C)[C@@H]3[C@H](O)[C@H](OC(C)=O)[C@@]2(C)O1` [forskholin], the “lean body mass gained, on average” value in the series on sedentary human subjects (in the course of the study) is 8.2 pounds. The “body fat percentage, body fat mass and lean body mass” value in the series with sedentary human subjects is “significantly decrease body fat percentage while increasing lean body mass”; in the series on sedentary human subjects (listed as forkohlin) it was “decreasing body fat percentage and body fat mass”.
Regarding epigallocatechin-3-gallate [EGCG], in the series with mice, the “UVB-induced skin tumor development” value was “prevents UVB-induced skin tumor development”.
As to `Cn1c(=O)c2c(ncn2C)n(C)c1=O` [caffeine], the neurodegeneration result with rats is listed as “protective effects”. The “subsequent 12-h night EE” value in [4] (in vivo) is “no influence”. Further, the “increase in daily EE” value in [4] (lean volunteers) was 150 kcal; in [4] (post-obese subjects), 79 kcal. In series [4] (repeated administration at 2-hour intervals over a 12-hour day period, two subject groups), the “increase of energy expenditure (EE)” value was 8-11%. The energy expenditure entry in series [5] is listed as “increased energy expenditure dose dependently”; with older and younger women, “increased energy expenditure significantly”.
For `CC[C@H](CC[C@@H](C)[C@H]1CC[C@H]2[C@@H]3CC=C4C[C@@H](O)CC[C@]4(C)[C@H]3CC[C@]12C)C(C)C` [beta-sitosterol], in series [6], the radical scavenging result is “modest radical scavenger”. In the series with thymocytes, the “activities of antioxidant enzymes (SOD, CAT, GPx)” value is “increasing”; the “intracellular reactive oxygen species (ROS)” value is on record as “attenuating”; the “irradiation-induced cell death and nuclear DNA strand breaks” value is “decreased”. Moreover, in the series on macrophage cultures, the glutathione/oxidized glutathione ratio result is listed as “reverts the impairment”.
Consider vitamin E, for which the “decrease of urine lipid peroxidation products” value in the series with healthy human volunteers is reported as 27%.
For `NCCC(=O)O` [beta-alanine], the “increase in PWCFT” value in [7] was 14.5%. The “onset of neuromuscular fatigue and ventilatory threshold” value in the series with women subjects (4 weeks, submaximal workloads) was “delayed”. For the same compound, in the series on women subjects (maximal cycle ergometry performance), the time-to-exhaustion entry was “increased”. Moreover, the “muscle carnosine level and total work done” value with male subjects is on record as “significant muscle carnosine level increases, as well as an increase in total work done”. Also, the muscle carnosine levels result with vastus lateralis is reported as “significant increases”.
Consider superoxide dismutase, for which, in the series with pigs, the DNA strand-break damage result was “protected against DNA strand-break damage”.
With `CC1=C(/C=C/C(C)=C/C=C/C(C)=C/C=C/C=C(C)/C=C/C=C(C)/C=C/C2=C(C)C(=O)[C@@H](O)CC2(C)C)C(C)(C)C[C@H](O)C1=O` [astaxanthin], in the series on middle-aged women (oral delivery, after 6 weeks), the improvement in skin-surface-moisture is given as 52% and the reduction in wrinkles was 54%. Also, in the series with middle-aged women (six weeks, instrumentation and dermatologist's review), the “fine lines and wrinkles, elasticity and moisture content” value was “significant improvements”. The “plasma 12- and 15-hydroxy fatty acids” value in the series on healthy subjects (during supplementation) is given as “reduced significantly”. Further, in the series with healthy subjects (in vivo), the plasma astaxanthin levels entry is listed as “significantly elevated” and the tolerability entry is on record as “well tolerated”. In addition, in the series with rat kidney fibroblasts, the “indices of oxidative stress (CAT, SOD activities, TBARS)” value is “inhibit these indices of oxidative stress”; the “protective properties compared to beta-carotene and lutein” value is given as “superior protective properties”.
